Laboratory results as given in patent publication US7858635B2 (priority 2005, dated 2010).
Where two headings read alike, the source gives them in different places.

Experiments:
M1 muscarinic receptor = target: T1, M1 muscarinic receptor (Homo sapiens, UniProt P11229); assay: Functional mobilization of intracellular calcium (FLIPR, Fluo-3), M1-CHO cells; type: cell-based; conditions: for Emax: read-out: M1 Efficacy
T1 construct: expressed in transfected cells; host or cells: CHO cells (M1-CHO, under zeocin and G418 selection)
T1 sequence (P11229 1-460): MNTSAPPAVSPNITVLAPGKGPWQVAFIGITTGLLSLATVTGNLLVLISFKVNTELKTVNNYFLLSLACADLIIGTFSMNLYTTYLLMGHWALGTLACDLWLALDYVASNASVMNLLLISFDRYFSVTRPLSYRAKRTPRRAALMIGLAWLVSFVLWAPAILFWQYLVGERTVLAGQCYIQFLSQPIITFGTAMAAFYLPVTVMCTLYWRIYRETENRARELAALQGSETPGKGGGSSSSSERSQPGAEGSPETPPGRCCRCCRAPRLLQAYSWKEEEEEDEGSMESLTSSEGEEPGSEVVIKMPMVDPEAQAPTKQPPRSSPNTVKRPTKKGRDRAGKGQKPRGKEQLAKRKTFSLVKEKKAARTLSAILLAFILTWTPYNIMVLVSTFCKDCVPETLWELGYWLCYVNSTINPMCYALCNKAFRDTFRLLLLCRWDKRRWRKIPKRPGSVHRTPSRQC
In short: (§1)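 Fluo-3 read-out, ex 488/em 540 nm, 60 sec on FLIPR 3. For agonist mode, compound added directly; for inhibition, 15 min compound pre-incubation before carbachol at EC80 (added as a 3× solution), or co-application. Buffer pH 7.4 with 1 mM probenecid; DMSO 0.5%.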

M4 muscarinic receptor = target: T2, M4 muscarinic receptor (Homo sapiens, UniProt P08173); assay: Functional mobilization of intracellular calcium (FLIPR, Fluo-3), M4-CHO cells; type: cell-based; conditions: for Emax: read-out: M4 Efficacy
T2 construct: expressed in transfected cells; host or cells: CHO cells (M4-CHO, under puromycin, zeocin and blasticidin selection)
T2 sequence (P08173 1-479): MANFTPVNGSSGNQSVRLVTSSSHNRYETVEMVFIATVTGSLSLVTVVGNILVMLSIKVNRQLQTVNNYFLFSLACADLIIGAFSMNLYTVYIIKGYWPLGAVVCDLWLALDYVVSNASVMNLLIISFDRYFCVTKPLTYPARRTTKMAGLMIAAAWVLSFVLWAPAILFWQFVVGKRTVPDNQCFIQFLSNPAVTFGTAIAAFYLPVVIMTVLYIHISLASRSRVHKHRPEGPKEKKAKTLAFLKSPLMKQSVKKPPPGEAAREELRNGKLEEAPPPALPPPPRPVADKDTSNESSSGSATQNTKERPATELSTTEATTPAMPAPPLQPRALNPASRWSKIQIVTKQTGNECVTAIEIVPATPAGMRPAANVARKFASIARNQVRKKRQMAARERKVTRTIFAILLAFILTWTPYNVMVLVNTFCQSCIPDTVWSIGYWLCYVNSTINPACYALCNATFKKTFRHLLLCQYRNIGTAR
In short: as §1

[1] = compound nos. 455-509, 100% efficacy is the maximum response obtained with the Carbachol control
[2] = compound nos. 1-454, 100% efficacy is the maximum response obtained with the Carbachol control
[3] = compound nos. 1-454, M1-CHO cells, calcium mobilization
[4] = compound nos. 1-454, M4-CHO cells, calcium mobilization

SMILES	Emax (M1 muscarinic receptor; [1]) [%]	M1 Activity (M1 muscarinic receptor; compounds 455-509)	Emax (M4 muscarinic receptor; [1]) [%]	M4 Activity (M4 muscarinic receptor; compounds 455-509)	Emax (M1 muscarinic receptor; [2]) [%]	M1 Activity (M1 muscarinic receptor; [3])	Emax (M4 muscarinic receptor; [2]) [%]	M4 Activity (M4 muscarinic receptor; [4])	M1 Efficacy (M1 muscarinic receptor; [2])	M4 Efficacy (M4 muscarinic receptor; [2])
Cc1ncc(N2CCC(N3CCC4(CCN(C(=O)N(C)C)c5ccccc54)CC3)CC2)nc1C [compound 461]	> 100	++ (activity was measured to be between 2.0 μM and 5.0 μM)	25 to 100	++ (activity was measured to be between 2.0 μM and 5.0 μM)						
COCCOC(=O)N1CCC(N2CCC3(CC2)CN(C(C)=O)c2ccc(F)cc23)CC1 [compound 284]					< 65	++ (activity was measured to be between 0.7 μM and 3.0 μM)	< 55	++ (activity was measured to be between 0.1 μM and 4.0 μM)		
CC(=O)N1CC2(CCN(C3CCN(c4cncc(C5CC5)n4)CC3)CC2)c2ccccc21 [compound 503]	< 25	+++ (activity was measured to be less than or equal to 2.0 μM)	< 25	++ (activity was measured to be between 2.0 μM and 5.0 μM)						
CCOC(=O)N1CCC(N2CCC3(CC2)CN(C(=O)CC(C)(C)C)c2ccc(F)cc23)CC1 [compound 194]					> 85	+++ (activity was measured to be less than or equal to 0.7 μM)	55 to 70	+ (activity was measured to be greater than or equal to 4.0 μM)		
CC(=O)N1CC2(CCN(CC3CCCC3)CC2)c2cc(F)ccc21 [compound 187]					65 to 85	++ (activity was measured to be between 0.7 μM and 3.0 μM)	55 to 70	+ (activity was measured to be greater than or equal to 4.0 μM)		
CCOC(=O)N1C2CCC1CC(N1CCC3(CC1)CN(C(=O)c1ccno1)c1ccc(F)cc13)C2 (stereo not shown) [compound 88]					65 to 85	+++ (activity was measured to be less than or equal to 0.7 μM)	< 55	++ (activity was measured to be between 0.1 μM and 4.0 μM)		
CCOC(=O)N1CCC(N2CCC3(CC2)CN(C(C)=O)c2ccc(-c4ccc(C)cc4)cc23)CC1 [compound 58, ethyl 4-(1-acetyl-5-p-tolylspiro[indoline-3,4′-piperidine]-1′-yl)piperidine-1-carboxylate]					65 to 85	+++ (activity was measured to be less than or equal to 0.7 μM)	55 to 70	++ (activity was measured to be between 0.1 μM and 4.0 μM)		
Cc1nsc(N2C3CCC2CC(N2CCC4(CC2)CN(C(=O)N(C)C)c2ccccc24)C3)n1 (stereo not shown) [compound 493]	> 100	+++ (activity was measured to be less than or equal to 2.0 μM)	25 to 100	++ (activity was measured to be between 2.0 μM and 5.0 μM)						
CN(C)C(=O)N1CCC2(CCN(C3CCN(c4cnccn4)CC3)CC2)c2ccccc21 [compound 457]	> 100	+++ (activity was measured to be less than or equal to 2.0 μM)	25 to 100	++ (activity was measured to be between 2.0 μM and 5.0 μM)						
CC(=O)N1CC2(CCN(C3CC4CCC(C3)N4C(=O)OC(C)C)CC2)c2cc(F)ccc21 (stereo not shown) [compound 94]					< 65	+++ (activity was measured to be less than or equal to 0.7 μM)	< 55	++ (activity was measured to be between 0.1 μM and 4.0 μM)		
CC#CCOC(=O)N1CC2(CCN(C3CCN(C(=O)OCC)CC3)CC2)c2cc(F)ccc21 [compound 346]					< 65	+++ (activity was measured to be less than or equal to 0.7 μM)	< 55	+ (activity was measured to be greater than or equal to 4.0 μM)		
CCOC(=O)N1CCC(N2CCC3(CC2)CN(C(=O)N2CCCC2)c2ccc(F)cc23)CC1 [compound 22]					65 to 85	+++ (activity was measured to be less than or equal to 0.7 μM)	< 55	+ (activity was measured to be greater than or equal to 4.0 μM)		
CC(=O)NC1CC2(CCN(CC3CC4C=CC3C4)CC2)c2ccccc21 (stereo not shown) [compound 305]						+ (activity was measured to be greater than or equal to 3.0 μM)		+ (activity was measured to be greater than or equal to 4.0 μM)	+ (efficacy was calculated to be 65% or less)	+ (efficacy was calculated to be 55% or less)
CCCOC(=O)N1CCC(N2CCC3(CC2)CN(C(C)=O)c2ccc(C)cc23)CC1 [compound 252]					< 65	+ (activity was measured to be greater than or equal to 3.0 μM)	55 to 70	+ (activity was measured to be greater than or equal to 4.0 μM)		
CC(=O)NC1CC2(CCN(C[C@H]3C[C@H]4C=C[C@H]3C4)CC2)c2ccccc21 (stereo partly shown) [compound 213]					65 to 85	++ (activity was measured to be between 0.7 μM and 3.0 μM)	< 55	+ (activity was measured to be greater than or equal to 4.0 μM)		
CCOC(=O)N1C2CCC1CC(N1CCC3(CC1)CNc1ccc(F)cc13)C2 (stereo not shown) [compound 310]					< 65	++ (activity was measured to be between 0.7 μM and 3.0 μM)	< 55	+ (activity was measured to be greater than or equal to 4.0 μM)		
CCOC(=O)N1CCC(N2CCC3(CC2)CN(C(=O)C2CC2)c2ccc(F)cc23)CC1 [compound 136]					> 85	+++ (activity was measured to be less than or equal to 0.7 μM)	> 70	+++ (activity was measured to be less than or equal to 0.1 μM)		
CCCOC(=O)N1CCC(N2CCC3(CC2)CN(C(C)=O)c2ccc(F)cc23)CC1 [compound 79]					< 65	++ (activity was measured to be between 0.7 μM and 3.0 μM)	< 55	+ (activity was measured to be greater than or equal to 4.0 μM)		
CCCOC(=O)N1CCCC(N2CCC3(CC2)CN(C(C)=O)c2ccc(F)cc23)CC1 (stereo not shown) [compound 266]					< 65	+ (activity was measured to be greater than or equal to 3.0 μM)	< 55	+ (activity was measured to be greater than or equal to 4.0 μM)		
O=C(OCC(F)F)N1C2CCC1CC(N1CCC3(CC1)COc1ccc(F)cc13)C2 (stereo not shown) [compound 186]					> 85	+++ (activity was measured to be less than or equal to 0.7 μM)	55 to 70	+ (activity was measured to be greater than or equal to 4.0 μM)		
CCC1CCC(N2CCC3(CC2)CN(C(C)=O)c2ccc(F)cc23)CC1 (stereo not shown) [compound 27]					65 to 85	+++ (activity was measured to be less than or equal to 0.7 μM)	55 to 70	+++ (activity was measured to be less than or equal to 0.1 μM)		
CCOC(=O)N1CCC(N2CCC3(CC2)CN(C(=O)OCCF)c2ccc(F)cc23)CC1 [compound 370]					65 to 85	+++ (activity was measured to be less than or equal to 0.7 μM)	> 70	++ (activity was measured to be between 0.1 μM and 4.0 μM)		
CN(C)C(=O)N1CC2(CCN(C3CCN(C(=O)O[C@@H]4CCOC4)CC3)CC2)c2cc(F)ccc21 [compound 209]					> 85	++ (activity was measured to be between 0.7 μM and 3.0 μM)	< 55	+ (activity was measured to be greater than or equal to 4.0 μM)		
CCOC(=O)N1CCC(CN2CCC3(CC2)C(=O)N(C)c2ccccc23)CC1 [compound 327]					< 65	+ (activity was measured to be greater than or equal to 3.0 μM)	< 55	+ (activity was measured to be greater than or equal to 4.0 μM)		
COCCOC(=O)N1C2CCC1CC(N1CCC3(CC1)CN(C(=O)OC)c1ccc(F)cc13)C2 (stereo not shown) [compound 33]					> 85	+++ (activity was measured to be less than or equal to 0.7 μM)	> 70	+++ (activity was measured to be less than or equal to 0.1 μM)		
